Literature values, collected in US9238073B2, “Pharmaceutical composition containing sympathomimetic amine salt and co-distillable additive” (Wyeth LLC, priority 2006, dated 2016).

Details: (R)-methamphetamine from reduction of (-)-pseudoephedrine

## (R)-methamphetamine
  psychoactivity relative to (S)-methamphetamine: one-tenth
